Assay results reported in ChEMBL document CHEMBL5528076, “Development of Selective Pyrido[2,3-d]pyrimidin-7(8H)-one-Based Mammalian STE20-Like (MST3/4) Kinase Inhibitors” (J Med Chem, 2024).
pEC50, pIC50: −log10 of the molar value. The source made the active and inactive calls. The rule behind the calls is not given here.

Experiments:
[1] = target: T1, Serine/threonine-protein kinase 3 (Homo sapiens) (UniProt Q13188); test: Binding affinity to recombinant MST2 (unknown origin) assessed as change in melting temperature by DSF analysis
T1 sequence (whole entry): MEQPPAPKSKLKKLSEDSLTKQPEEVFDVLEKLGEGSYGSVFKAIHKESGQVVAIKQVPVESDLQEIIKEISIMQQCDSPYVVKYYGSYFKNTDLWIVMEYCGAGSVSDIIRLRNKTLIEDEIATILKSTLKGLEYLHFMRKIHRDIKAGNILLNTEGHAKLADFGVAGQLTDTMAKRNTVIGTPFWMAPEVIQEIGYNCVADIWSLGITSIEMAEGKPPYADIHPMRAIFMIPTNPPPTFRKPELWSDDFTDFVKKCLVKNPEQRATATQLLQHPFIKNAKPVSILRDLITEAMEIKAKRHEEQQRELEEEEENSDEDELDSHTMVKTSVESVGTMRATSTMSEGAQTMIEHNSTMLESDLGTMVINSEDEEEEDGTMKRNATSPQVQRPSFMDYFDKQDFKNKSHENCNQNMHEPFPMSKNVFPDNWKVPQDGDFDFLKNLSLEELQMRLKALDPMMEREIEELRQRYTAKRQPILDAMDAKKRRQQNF

[2] = target: T2, Serine/threonine-protein kinase 26 (Homo sapiens, UniProt Q9P289); test: Binding affinity to recombinant MST4 (unknown origin) assessed as change in melting temperature by DSF analysis
Target sequence in this assay (Q9P289 2-416 limits assumed): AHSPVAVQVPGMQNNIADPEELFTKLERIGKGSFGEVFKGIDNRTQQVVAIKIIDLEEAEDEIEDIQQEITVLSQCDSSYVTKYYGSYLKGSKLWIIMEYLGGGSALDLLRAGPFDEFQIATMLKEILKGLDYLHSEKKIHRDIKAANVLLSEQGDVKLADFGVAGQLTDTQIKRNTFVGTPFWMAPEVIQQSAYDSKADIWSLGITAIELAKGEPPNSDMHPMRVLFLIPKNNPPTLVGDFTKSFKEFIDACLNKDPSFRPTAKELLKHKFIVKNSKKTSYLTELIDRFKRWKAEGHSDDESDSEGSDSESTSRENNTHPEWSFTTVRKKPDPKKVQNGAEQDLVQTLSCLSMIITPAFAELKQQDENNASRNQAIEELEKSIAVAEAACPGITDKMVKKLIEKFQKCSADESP

[3] = target: Serine/threonine-protein kinase SIK2 (Homo sapiens, UniProt Q9H0K1); test: Inhibition of SIK2 (unknown origin) expressed in HEK293T cells using NanoGlo as substrate incubated for 20 hrs by NanoBRET assay; type: cell-based
Chain of Serine/threonine-protein kinase SIK2 (Q9H0K1 whole entry): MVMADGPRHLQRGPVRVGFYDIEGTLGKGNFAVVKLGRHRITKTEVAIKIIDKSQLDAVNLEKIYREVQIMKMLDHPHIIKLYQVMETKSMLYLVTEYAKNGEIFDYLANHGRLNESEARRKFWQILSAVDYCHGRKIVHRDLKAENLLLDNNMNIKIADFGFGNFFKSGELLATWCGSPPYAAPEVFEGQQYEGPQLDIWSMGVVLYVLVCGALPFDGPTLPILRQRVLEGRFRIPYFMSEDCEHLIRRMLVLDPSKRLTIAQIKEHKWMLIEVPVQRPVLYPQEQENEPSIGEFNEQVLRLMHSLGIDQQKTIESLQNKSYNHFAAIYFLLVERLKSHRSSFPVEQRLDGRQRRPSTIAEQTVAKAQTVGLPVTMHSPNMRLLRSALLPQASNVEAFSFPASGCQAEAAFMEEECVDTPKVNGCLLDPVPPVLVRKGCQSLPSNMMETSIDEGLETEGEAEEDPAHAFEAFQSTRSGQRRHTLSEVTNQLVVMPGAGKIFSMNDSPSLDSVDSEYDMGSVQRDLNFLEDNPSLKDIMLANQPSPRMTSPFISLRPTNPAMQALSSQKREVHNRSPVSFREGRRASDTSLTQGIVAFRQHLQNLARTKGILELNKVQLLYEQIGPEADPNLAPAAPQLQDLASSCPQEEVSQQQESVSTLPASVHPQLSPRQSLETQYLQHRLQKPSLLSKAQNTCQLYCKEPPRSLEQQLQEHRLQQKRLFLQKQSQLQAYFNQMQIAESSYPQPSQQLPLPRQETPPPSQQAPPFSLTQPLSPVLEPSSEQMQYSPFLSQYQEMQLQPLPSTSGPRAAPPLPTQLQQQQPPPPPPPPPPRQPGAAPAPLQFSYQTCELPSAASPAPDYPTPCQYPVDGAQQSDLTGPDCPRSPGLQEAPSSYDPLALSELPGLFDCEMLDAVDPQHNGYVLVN

[4] = target: T3, Serine/threonine-protein kinase 4 (Homo sapiens, UniProt Q13043); test: Inhibition of MST1 (unknown origin) expressed in HEK293T cells using NanoGlo as substrate incubated for 20 hrs by NanoBRET assay; type: cell-based
T3 sequence (Q13043 whole entry): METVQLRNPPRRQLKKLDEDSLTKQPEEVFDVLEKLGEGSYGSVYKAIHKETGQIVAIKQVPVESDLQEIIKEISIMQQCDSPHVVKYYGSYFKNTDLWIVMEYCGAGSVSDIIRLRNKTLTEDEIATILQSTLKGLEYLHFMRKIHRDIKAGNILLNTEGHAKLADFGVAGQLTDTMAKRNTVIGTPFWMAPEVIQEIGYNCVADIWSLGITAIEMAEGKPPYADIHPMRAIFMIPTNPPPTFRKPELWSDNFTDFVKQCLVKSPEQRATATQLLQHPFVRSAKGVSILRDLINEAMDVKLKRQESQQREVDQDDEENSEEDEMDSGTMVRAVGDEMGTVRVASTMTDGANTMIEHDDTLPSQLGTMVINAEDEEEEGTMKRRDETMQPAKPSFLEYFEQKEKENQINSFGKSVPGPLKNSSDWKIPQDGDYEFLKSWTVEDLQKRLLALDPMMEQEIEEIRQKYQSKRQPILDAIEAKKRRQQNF

[5] = target: T4, Serine/threonine-protein kinase 24 (Homo sapiens, UniProt Q9Y6E0); test: Inhibition of MST3 (unknown origin) expressed in intact HEK293T cells using NanoGlo as substrate incubated for 20 hrs by NanoBRET assay; type: cell-based
Target sequence in this assay (Q9Y6E0 whole entry): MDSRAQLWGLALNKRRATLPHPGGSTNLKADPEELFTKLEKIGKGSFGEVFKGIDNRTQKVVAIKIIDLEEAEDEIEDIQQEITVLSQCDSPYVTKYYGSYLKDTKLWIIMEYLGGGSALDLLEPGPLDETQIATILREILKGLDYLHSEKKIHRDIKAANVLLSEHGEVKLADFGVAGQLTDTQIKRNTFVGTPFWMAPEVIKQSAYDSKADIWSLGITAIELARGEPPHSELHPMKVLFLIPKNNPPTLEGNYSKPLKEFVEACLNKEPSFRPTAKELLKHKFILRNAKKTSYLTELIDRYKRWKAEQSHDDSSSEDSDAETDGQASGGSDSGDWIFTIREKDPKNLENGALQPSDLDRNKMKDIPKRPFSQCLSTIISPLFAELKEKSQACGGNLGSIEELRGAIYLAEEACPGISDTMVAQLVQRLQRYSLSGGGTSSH

[6] = target: T2, Serine/threonine-protein kinase 26; test: Inhibition of MST4 (unknown origin) expressed in HEK293T cells using NanoGlo as substrate incubated for 20 hrs by NanoBRET assay; type: cell-based
Target sequence in this assay (Q9P289 whole entry): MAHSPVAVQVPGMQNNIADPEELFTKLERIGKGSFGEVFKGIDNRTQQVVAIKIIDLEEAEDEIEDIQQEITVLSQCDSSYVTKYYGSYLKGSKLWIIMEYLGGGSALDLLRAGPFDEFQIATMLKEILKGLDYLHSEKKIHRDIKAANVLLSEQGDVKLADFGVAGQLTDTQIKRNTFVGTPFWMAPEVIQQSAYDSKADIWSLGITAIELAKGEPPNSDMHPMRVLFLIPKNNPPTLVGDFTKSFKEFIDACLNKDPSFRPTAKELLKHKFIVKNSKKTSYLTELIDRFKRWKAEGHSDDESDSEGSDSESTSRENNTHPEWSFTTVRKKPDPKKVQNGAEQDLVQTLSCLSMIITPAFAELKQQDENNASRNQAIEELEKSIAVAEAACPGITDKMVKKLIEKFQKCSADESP

HCT-116 [7] = test: Antiproliferative activity against human HCT-116 cells assessed as reduction in cell viability at 10 uM incubated for 6 to 72 hrs by Hoechst33342 staining based analysis; type: functional; conditions: time 6-72 hrs
[8] = target: T5, Serine/threonine-protein kinase 4 (Homo sapiens) (UniProt Q13043); test: Binding affinity to recombinant MST1 (unknown origin) assessed as change in melting temperature by DSF analysis
T5 sequence (whole entry): T3 sequence (Q13043 whole entry)

[9] = target: T6, Serine/threonine-protein kinase 3 (Homo sapiens, UniProt Q13188); test: Inhibition of MST2 (unknown origin) expressed in HEK293T cells using NanoGlo as substrate incubated for 20 hrs by NanoBRET assay; type: cell-based
T6 sequence (Q13188 whole entry): T1 sequence (whole entry)

[10] = target: Serine/threonine-protein kinase PAK 1 (Homo sapiens) (UniProt Q13153); test: Binding affinity to recombinant PAK1 (unknown origin) assessed as change in melting temperature by DSF analysis
Chain of Serine/threonine-protein kinase PAK 1 (Homo sapiens) (Q13153 whole entry): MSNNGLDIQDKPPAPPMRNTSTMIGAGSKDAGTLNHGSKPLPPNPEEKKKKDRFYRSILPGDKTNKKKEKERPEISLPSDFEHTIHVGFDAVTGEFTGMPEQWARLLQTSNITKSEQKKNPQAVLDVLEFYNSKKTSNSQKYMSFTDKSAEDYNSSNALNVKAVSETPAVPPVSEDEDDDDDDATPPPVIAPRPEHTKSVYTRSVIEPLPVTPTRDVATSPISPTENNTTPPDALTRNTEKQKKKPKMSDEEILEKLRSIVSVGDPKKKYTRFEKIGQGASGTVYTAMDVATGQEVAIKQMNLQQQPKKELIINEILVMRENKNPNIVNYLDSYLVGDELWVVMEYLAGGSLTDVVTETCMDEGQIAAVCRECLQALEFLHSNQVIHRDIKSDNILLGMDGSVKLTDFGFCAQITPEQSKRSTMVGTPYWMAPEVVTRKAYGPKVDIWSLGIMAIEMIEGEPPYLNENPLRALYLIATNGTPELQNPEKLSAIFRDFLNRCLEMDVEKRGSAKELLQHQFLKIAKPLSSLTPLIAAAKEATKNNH

HCT-116 [11] = test: Antiproliferative activity against human HCT-116 cells assessed as reduction in cell viability at 10 uM incubated for 48 hrs by Hoechst33342 staining based analysis; type: functional
[12] = target: T4, Serine/threonine-protein kinase 24; test: Inhibition of MST3 (unknown origin) expressed in lysed HEK293T cells using NanoGlo as substrate incubated for 20 hrs by NanoBRET assay; type: cell-based
Target sequence in this assay (Q9Y6E0 whole entry): as the sequence (Q9Y6E0 whole entry) above

[13] = target: T4, Serine/threonine-protein kinase 24; test: Binding affinity to recombinant MST3 (unknown origin) assessed as change in melting temperature by DSF analysis
Target sequence in this assay (Q9Y6E0 whole entry, looked up): as the sequence (Q9Y6E0 whole entry) above

HCT-116 [14] = test: Induction of cell cycle arrest in human HCT-116 cells assessed as accumulation of cells at G1 phase at 10 uM incubated for 72 hrs by FUCCI based analysis; type: functional
HCT-116 [15] = test: Induction of apoptosis in human HCT-116 cells assessed as effect on cell count at 1 uM incubated for 72 hrs by Hoechst33342 staining based analysis; type: functional
[16] = target: T4, Serine/threonine-protein kinase 24; test: Inhibition of MST3 (unknown origin)
Target sequence in this assay (Q9Y6E0 whole entry): as above

[17] = target: T2, Serine/threonine-protein kinase 26; test: Inhibition of MST4 (unknown origin)
Target sequence in this assay (Q9P289 whole entry): as the sequence (Q9P289 whole entry) above

HCT-116 [18] = test: Induction of apoptosis in human HCT-116 cells assessed as increase in fluorescence intensity at 10 uM incubated for 24 hrs by Hoechst33342 staining based analysis; type: functional, cell-based
HCT-116 [19] = test: Induction of apoptosis in human HCT-116 cells assessed as increase in cell count at 10 uM incubated for 48 hrs by Hoechst33342 staining based analysis; type: functional
HCT-116 [20] = test: Induction of cell cycle arrest in human HCT-116 cells assessed as accumulation of cells at G2/M phase incubated for 72 hrs by FUCCI based analysis; type: functional; conditions: dose 10.0 µM
[21] = target: T3, Serine/threonine-protein kinase 4
[22] = target: T6, Serine/threonine-protein kinase 3
HCT-116 [23] = test: Induction of apoptosis in human HCT-116 cells assessed as effect on cell count at 10 uM incubated for 72 hrs by Hoechst33342 staining based analysis; type: functional
[24] = target: T4, Serine/threonine-protein kinase 24; test: Inhibition of MST3 (unknown origin) expressed in HEK293T cells using NanoGlo as substrate incubated for 20 hrs by NanoBRET assay; type: cell-based
Target sequence in this assay (Q9Y6E0 whole entry): as the sequence (Q9Y6E0 whole entry) above

[25] = Microsomal stability in Sprague-Dawley rat liver microsome incubated for 1 hr by HPLC analysis; type: ADME; conditions: liver microsomes, read-out: Stability
[26] = target: T7, Serine/threonine-protein kinase Nek2 (Homo sapiens, UniProt P51955); test: Inhibition of NEK2 (unknown origin) expressed in HEK293T cells using NanoGlo as substrate incubated for 20 hrs by NanoBRET assay; type: cell-based
T7 sequence (P51955 whole entry): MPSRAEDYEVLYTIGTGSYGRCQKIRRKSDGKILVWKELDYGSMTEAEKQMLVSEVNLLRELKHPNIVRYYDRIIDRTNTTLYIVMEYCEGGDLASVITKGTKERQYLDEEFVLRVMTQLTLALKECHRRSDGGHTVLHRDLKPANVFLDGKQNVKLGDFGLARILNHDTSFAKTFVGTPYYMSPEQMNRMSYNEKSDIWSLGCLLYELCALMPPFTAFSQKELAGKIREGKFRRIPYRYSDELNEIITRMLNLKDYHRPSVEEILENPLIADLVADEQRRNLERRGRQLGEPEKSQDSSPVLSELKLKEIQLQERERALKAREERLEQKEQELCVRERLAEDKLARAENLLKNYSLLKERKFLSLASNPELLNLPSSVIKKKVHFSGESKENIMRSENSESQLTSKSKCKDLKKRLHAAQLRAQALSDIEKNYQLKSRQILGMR

HCT-116 [27] = test: Antiproliferative activity against human HCT-116 cells assessed as reduction in cell viability at 1 to 10 uM incubated for 24 hrs by Hoechst33342 staining based analysis; type: functional; conditions: dose 1-10 µM
[28] = target: Tyrosine-protein kinase Fes/Fps (Homo sapiens, UniProt P07332); test: Inhibition of FES (unknown origin) expressed in HEK293T cells using NanoGlo as substrate incubated for 20 hrs by NanoBRET assay; type: cell-based
Chain of Tyrosine-protein kinase Fes/Fps (P07332 whole entry, canonical isoform): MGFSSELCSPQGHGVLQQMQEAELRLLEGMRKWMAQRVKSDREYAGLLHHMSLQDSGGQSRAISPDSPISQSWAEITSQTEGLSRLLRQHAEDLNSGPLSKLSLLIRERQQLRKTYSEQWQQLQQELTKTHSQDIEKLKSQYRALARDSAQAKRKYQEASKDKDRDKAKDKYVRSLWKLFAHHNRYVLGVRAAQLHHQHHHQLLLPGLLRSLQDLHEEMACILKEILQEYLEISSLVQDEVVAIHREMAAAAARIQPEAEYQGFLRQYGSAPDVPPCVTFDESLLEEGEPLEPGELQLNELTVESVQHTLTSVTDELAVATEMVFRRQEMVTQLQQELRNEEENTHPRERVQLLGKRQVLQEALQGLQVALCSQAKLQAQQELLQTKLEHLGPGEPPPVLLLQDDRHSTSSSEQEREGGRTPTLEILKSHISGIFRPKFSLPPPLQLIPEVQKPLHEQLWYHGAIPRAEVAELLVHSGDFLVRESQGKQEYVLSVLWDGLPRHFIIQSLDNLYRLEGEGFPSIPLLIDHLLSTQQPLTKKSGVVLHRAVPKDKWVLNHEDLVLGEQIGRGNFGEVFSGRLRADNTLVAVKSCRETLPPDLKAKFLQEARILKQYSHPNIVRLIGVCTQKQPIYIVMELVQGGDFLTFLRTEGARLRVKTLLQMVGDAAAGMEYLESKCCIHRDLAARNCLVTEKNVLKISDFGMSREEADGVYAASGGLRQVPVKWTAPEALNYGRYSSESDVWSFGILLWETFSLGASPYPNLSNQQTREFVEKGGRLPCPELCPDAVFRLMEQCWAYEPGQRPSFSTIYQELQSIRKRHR

[29] = target: Casein kinase I isoform epsilon (Homo sapiens, UniProt P49674); test: Inhibition of CK1e (unknown origin) expressed in HEK293T cells using NanoGlo as substrate incubated for 20 hrs by NanoBRET assay; type: cell-based
Chain of Casein kinase I isoform epsilon (P49674 whole entry, canonical isoform): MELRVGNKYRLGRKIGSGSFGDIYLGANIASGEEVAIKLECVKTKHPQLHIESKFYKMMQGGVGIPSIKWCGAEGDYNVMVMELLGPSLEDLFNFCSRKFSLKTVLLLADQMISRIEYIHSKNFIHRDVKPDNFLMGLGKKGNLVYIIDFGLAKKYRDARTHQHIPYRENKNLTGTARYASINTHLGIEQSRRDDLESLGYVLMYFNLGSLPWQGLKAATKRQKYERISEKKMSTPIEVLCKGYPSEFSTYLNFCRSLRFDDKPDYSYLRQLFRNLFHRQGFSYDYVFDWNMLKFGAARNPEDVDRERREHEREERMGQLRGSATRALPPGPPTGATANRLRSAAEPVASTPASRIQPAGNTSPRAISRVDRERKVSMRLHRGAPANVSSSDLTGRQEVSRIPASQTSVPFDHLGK

SMILES | ΔTm [1] [°C] | ΔTm [2] [°C] | pEC50 [3] | pEC50 [4] | pEC50 [5] | pEC50 [6] | Activity (HCT-116 [7]) | ΔTm [8] [°C] | pEC50 [9] | ΔTm [10] [°C] | pEC50 [12] | ΔTm [13] [°C] | further results
Cc1cccc(-c2ccc(-c3cc4cnc(NCCCN5CCCC5=O)nc4n(CCCCN)c3=O)c(Cl)c2)n1 | 2.2 | 7.5 | 5.89 | 4.82 | 6.75 | 5.96 | inactive | 1.1 | 4.77 | 3.6 | 7.25 | 10.6 | Activity (HCT-116 [11]): 30%; Activity (HCT-116 [14]): Active; Activity (HCT-116 [15]): Active
CC(=O)NC1CCN(c2ncnc3[nH]cc(-c4cccc(Cl)c4)c23)CC1 | – | – | – | – | – | – | inactive | – | – | – | – | – | –
CCS(=O)(=O)Nc1ccc2c(c1)/C(=C(/Nc1ccc(CN3CCCCC3)cc1)c1ccccc1)C(=O)N2 [HESPERADIN] | – | – | – | – | – | – | – | – | – | – | – | – | pIC50 [16]: 8.00; pIC50 [17]: 8.22
Cc1cccc(-c2ccc(-c3cc4cnc(Nc5ccc(CCCO)cc5)nc4n(CCCCN)c3=O)c(Cl)c2)n1 | 13.7 | 15.3 | 7.31 | 6.60 | 7.70 | 7.32 | – | 8.7 | 6.60 | 9.1 | 7.70 | 16.7 | Activity (HCT-116 [18]): Active
N#Cc1cccc(-c2c[nH]c3ncnc(N4CCOCC4)c23)c1 | – | – | – | – | – | – | inactive | – | – | – | – | – | Activity (HCT-116 [19]): Active; Activity (HCT-116 [20]): Dose-Dependent Effect
CNC(=O)c1nn(C)c2c1C(C)(C)Cc1cnc(Nc3ccc(N4CCN(C)CC4)cc3)nc1-2 | – | – | – | – | – | – | – | – | – | – | – | – | Activity (HCT-116 [14]): Active
CN1C(=O)c2sccc2N(C)c2nc(Nc3ccc(S(N)(=O)=O)cc3)ncc21 | – | – | – | – | – | – | – | – | – | – | – | – | pIC50 [21]: 6.79; pIC50 [22]: 6.31
CNc1ncc2cc(-c3ccc(-c4cccc(C)n4)cc3Cl)c(=O)n(CCCCN)c2n1 | 7.9 | 11.4 | 7.00 | 5.39 | 6.66 | 6.34 | inactive | 5.6 | 5.59 | 6.5 | 7.38 | 11.7 | Activity (HCT-116 [23]): Active; Activity (HCT-116 [18]): Active; pEC50 [24]: 7.38
Cc1cccc(-c2ccc(-c3cc4cnc(NCCCN5CCOCC5)nc4n(CCCCN)c3=O)c(Cl)c2)n1 | 5.9 | 10.6 | 6.29 | 5.28 | 7.26 | 6.94 | inactive | 3.6 | 4.99 | 4.1 | 7.57 | 11.6 | Activity (HCT-116 [23]): Active; Activity (HCT-116 [18]): Active
CCOc1cc2ncc(C#N)c(Nc3ccc(OCc4ccccn4)c(Cl)c3)c2cc1NC(=O)/C=C/CN(C)C [NERATINIB] | – | – | – | – | – | – | – | – | – | – | – | – | pIC50 [16]: 8.15; pIC50 [17]: 8.15
Cc1cccc(-c2ccc(-c3cc4cnc(Nc5ccc(O)cc5)nc4n(CCCCN)c3=O)c(Cl)c2)n1 | 13.7 | 15 | 7.21 | 6.38 | – | 7.36 | – | 8 | 6.43 | 9.2 | 7.64 | 17.1 | –
Cc1cccc(-c2ccc(-c3cc4cnc(NC(CO)CO)nc4n(CCCCN)c3=O)c(Cl)c2)n1 | 4.6 | 8.1 | 5.13 | < 4.30 | 7.24 | 6.23 | inactive | 2.1 | < 4.30 | 5.1 | 7.09 | 10.6 | remaining at 1 h [25]: 90%; pEC50 [26]: < 5.30; Activity (HCT-116 [11]): 30%; Activity (HCT-116 [27]): >90%; pEC50 [28]: < 4.30; pEC50 [29]: 4.75; Activity (HCT-116 [14]): Active; Activity (HCT-116 [15]): Active
